Experimental data from ChEMBL document CHEMBL1144853, “Arginine binding motifs: design and synthesis of galactose-derived arginine tweezers as galectin-3 inhibitors” (J Med Chem, 2008).

Biological target: Galectin-3 (Homo sapiens, UniProt P17931)
Assay: Binding affinity to human galectin 3 by Fluorescence polarization assay

Galectin-3, sequence (P17931 whole entry): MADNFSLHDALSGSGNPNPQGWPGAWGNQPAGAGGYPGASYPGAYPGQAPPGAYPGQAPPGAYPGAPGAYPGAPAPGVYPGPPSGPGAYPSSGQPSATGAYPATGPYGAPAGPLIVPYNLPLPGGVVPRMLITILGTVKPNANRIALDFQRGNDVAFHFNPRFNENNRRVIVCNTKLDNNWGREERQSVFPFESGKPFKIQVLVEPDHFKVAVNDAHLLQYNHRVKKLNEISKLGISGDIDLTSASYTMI

SMILES	Kd
CS[C@@H]1O[C@H](CO)[C@H](O)[C@H](O)[C@H]1OS(=O)(=O)O	2800 µM
CS[C@@H]1O[C@H](CO)[C@H](O)[C@H](NC(=O)c2ccc(C)cc2)[C@H]1OP(=O)(O)OCc1ccccc1	120 µM
CS[C@@H]1O[C@H](CO)[C@H](O)[C@H](NC(=O)c2ccc(C)cc2)[C@H]1OP(=O)(O)O	250 µM
CS[C@@H]1O[C@H](CO)[C@H](O)[C@H](NC(=O)c2ccc(C)cc2)[C@H]1O[PH](=O)O	150 µM
CS[C@@H]1O[C@H](CO)[C@H](O)[C@H](NC(=O)c2ccc(C)cc2)[C@H]1OS(=O)(=O)O	87 µM
CS[C@@H]1O[C@H](CO)[C@H](O)[C@H](NC(=O)c2ccc(C)cc2)[C@H]1OC(=O)c1ccccc1	380 µM
CS[C@@H]1O[C@H](CO)[C@H](O)[C@H](NC(=O)c2ccc(C)cc2)[C@H]1O	220 µM
CS[C@@H]1O[C@H](CO)[C@H](O)[C@H](O)[C@H]1O	5900 µM
CS[C@@H]1O[C@H](CO)[C@H](O)[C@H](NC(=O)c2ccc(C)cc2)[C@H]1OC(C)=O	240 µM
